For ten molecules, TGI and GI50 results are on record in PubChem BioAssay (NCI).

“And” between values parts separate entries of the source, which are not always exact repeats. Equal values may be shown once.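 All cell lines were grown in 96-well plates and treated with compound for 48 hours. The concentration for 50% growth inhibition is given as GI50. Definition used: TGI = concentration required for complete inhibition of growth.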

Among the test systems are BT-549 breast; OVCAR-3 ovarian; SF-268 CNS; A549 NSCLC; HT29 colon; HCT-116 colon; OVCAR-8 ovarian; COLO 205 colon; MCF7 breast; SNB-19 CNS; SK-MEL-2 melanoma; PC-3 prostate; SNB-75 CNS; UO-31 renal.
Common to all, as to test: NCI tumour cell line growth inhibition, 48 h

In the case of `O=c1c2cc(I)ccc2nc(-c2cccs2)n1/N=C/c1ccccc1`, the TGI with BT-549 breast, in the test with OVCAR-3 ovarian, in the test on SF-268 CNS, with A549 NSCLC, with HT29 colon and in the test with HCT-116 colon was over 100 µM throughout. For the same molecule, the TGI in the test with OVCAR-8 ovarian, with COLO 205 colon, in the test on MCF7 breast, in the test on SNB-19 CNS, with SK-MEL-2 melanoma and with PC-3 prostate was over 100 µM in each case. Besides, the TGI in the test with SNB-75 CNS and in the test with UO-31 renal was over 100 µM in each case.
For the molecule `CCCCC(=O)Nc1ccc2c(C)cc(-c3ccc(-c4cc(-c5ccc(C)cc5)cc(-c5ccc(-c6cc(C)c7ccc(NC(=O)CCCC)nc7n6)cc5)n4)cc3)nc2n1`, the TGI in the test on BT-549 breast, in the test with OVCAR-3 ovarian, in the test with SF-268 CNS, in the test on A549 NSCLC, with HCT-116 colon and in the test on COLO 205 colon was over 100 µM in each case. The TGI in the test with MCF7 breast, with SNB-19 CNS, with SK-MEL-2 melanoma, in the test with PC-3 prostate, with SNB-75 CNS and with UO-31 renal was over 100 µM each time.
Take `CSc1c(C#N)c(S)[nH]c(=O)c1C#N`: the TGI in the test with BT-549 breast, in the test on OVCAR-3 ovarian, with SF-268 CNS, in the test on A549 NSCLC, in the test on HT29 colon and in the test on HCT-116 colon was over 100 µM each time. The TGI in the test on OVCAR-8 ovarian, in the test with COLO 205 colon, with MCF7 breast, in the test on SNB-19 CNS, with SK-MEL-2 melanoma and with PC-3 prostate was over 100 µM each time. The TGI is over 100 µM in the test with SNB-75 CNS and 87.5 µM in the test on UO-31 renal.
Take `O=Nc1c(O)cc(Nc2cccnc2)c2ccccc12`: the TGI in the test with BT-549 breast is over 100 µM; with OVCAR-3 ovarian, 11.8 µM; with SF-268 CNS, 53.4 µM; in the test with A549 NSCLC, over 100 µM; with HT29 colon, 50.9 µM; with HCT-116 colon, over 100 µM. The TGI in the test on OVCAR-8 ovarian is over 100 µM; in the test with COLO 205 colon, 42.5 µM; in the test on MCF7 breast, over 100 µM; in the test on SNB-19 CNS, 8.39 µM; in the test with SK-MEL-2 melanoma, over 100 µM; with PC-3 prostate it was over 100 µM. In addition, the TGI in the test with SNB-75 CNS and in the test on UO-31 renal was over 100 µM in each case.
Turning to `COc1ccc(/C=C/C(=O)c2ccc(OC(=O)/C=C/c3ccccc3)cc2)cc1`, the TGI is over 58.3 µM in the test with BT-549 breast; over 100 µM in the test with OVCAR-3 ovarian; over 68.1 µM in the test with SF-268 CNS; over 100 µM in the test with A549 NSCLC; 39.6 µM in the test on HT29 colon; 40.4 µM with HCT-116 colon. Besides, the TGI is over 83.2 µM in the test with OVCAR-8 ovarian; over 71.6 µM in the test on COLO 205 colon; over 100 µM with MCF7 breast; over 63.4 µM in the test on SNB-19 CNS; over 100 µM in the test with SK-MEL-2 melanoma; over 100 µM with PC-3 prostate. Moreover, the TGI in the test on SNB-75 CNS was over 82.2 µM; with UO-31 renal, over 91.5 µM.
`COc1cccc(/C=C\c2ccc(O)cc2)c1`: the TGI in the test on BT-549 breast was 58.4 µM; in the test with OVCAR-3 ovarian, over 82.7 µM; in the test with SF-268 CNS it was over 96.7 µM; with A549 NSCLC, over 80.9 µM; in the test on HT29 colon it was 53.7 µM; in the test with HCT-116 colon it was 74 µM. Besides, the TGI in the test on OVCAR-8 ovarian is 56.2 µM; in the test with COLO 205 colon, over 100 µM; in the test with MCF7 breast it was over 100 µM; in the test on SNB-19 CNS it was over 100 µM; in the test on SK-MEL-2 melanoma it was 68.8 µM; with PC-3 prostate, 99.5 µM. Further, the results for the TGI in the test with SNB-75 CNS and with UO-31 renal were 70.2 µM and 33.7 µM, respectively.
For `COc1cc2ccc1OCc1cccc(n1)COc1ccc(cc1OC)C=NCCNCCN=C2`, the TGI in the test on BT-549 breast, with OVCAR-3 ovarian, with SF-268 CNS, with A549 NSCLC, in the test on HT29 colon and with HCT-116 colon was over 100 µM in each case. The TGI in the test with OVCAR-8 ovarian, in the test on COLO 205 colon, in the test on MCF7 breast, in the test with SNB-19 CNS, in the test with SK-MEL-2 melanoma and in the test on PC-3 prostate was over 100 µM in each case. For the same molecule, the TGI in the test with SNB-75 CNS and in the test with UO-31 renal was over 100 µM in each case.
Take `O=C1C(S(=O)(=O)c2ccccc2)=C(CS(=O)(=O)c2ccccc2)[C@@H](OCc2ccccc2)[C@@H]1OCc1ccccc1`: the TGI in the test with BT-549 breast is 27 µM; with OVCAR-3 ovarian, 27.5 µM; in the test on SF-268 CNS it was over 100 µM; in the test with A549 NSCLC it was over 100 µM; in the test with HT29 colon it was 26.3 µM; in the test on HCT-116 colon, 27 µM. Also, the TGI is 39.8 µM with OVCAR-8 ovarian; 61.3 µM in the test on COLO 205 colon; over 100 µM with MCF7 breast; over 100 µM in the test with SNB-19 CNS; 33.5 µM in the test with SK-MEL-2 melanoma; 85.8 µM in the test with PC-3 prostate. For the same molecule, the TGI with SNB-75 CNS is over 100 µM; with UO-31 renal it was 37.1 µM.
In the case of `CC1C(c2ccccc2O)c2cc3c(cc2OC1N1CCOCC1)OCO3` (stereo not drawn), the TGI was over 100 µM in the test on BT-549 breast; 60.6 µM in the test on OVCAR-3 ovarian; over 100 µM in the test with SF-268 CNS; 80.7 µM with A549 NSCLC; 68.4 µM in the test with HT29 colon; 75.9 µM in the test on HCT-116 colon. The TGI in the test with OVCAR-8 ovarian is over 100 µM; in the test with COLO 205 colon, 46.6 µM; in the test on MCF7 breast, over 100 µM; with SNB-19 CNS, over 100 µM; in the test with SK-MEL-2 melanoma, 72.5 µM; in the test with PC-3 prostate, over 100 µM. Also, the results for the TGI with SNB-75 CNS and in the test on UO-31 renal were 91.3 µM and over 100 µM, respectively.
With `COc1cc2c[n+](C)c3c4cc(OC)c(OC)cc4ccc3c2cc1OC`, the TGI in the test with BT-549 breast is over 100 µM; in the test with OVCAR-3 ovarian it was over 100 µM; in the test with SF-268 CNS, > 100 µM and 37.6 µM; in the test with A549 NSCLC, over 100 µM; in the test on HT29 colon, over 100 µM; with HCT-116 colon, over 100 µM. The TGI with OVCAR-8 ovarian was over 100 µM; in the test on COLO 205 colon, 42.8 µM and 39.9 µM; with MCF7 breast, over 100 µM; in the test on SNB-19 CNS it was over 100 µM; in the test on SK-MEL-2 melanoma, over 100 µM; with PC-3 prostate it was over 100 µM. Further, the TGI with SNB-75 CNS is > 100 µM and 98.9 µM; in the test with UO-31 renal, over 100 µM. In addition, the GI50 is 22.6 µM and 3.32 µM with SF-268 CNS; 32.9 µM and 15 µM with OVCAR-8 ovarian; 35.6 µM and 8.35 µM with MCF7 breast; 80 µM and 13.5 µM in the test with SNB-19 CNS; > 100 µM and 31.6 µM in the test on SNB-75 CNS.
